{"source": "patent US20260265694A1", "about": "“USE OF A VITISIN COMPOUND FOR THE PRODUCTION OF HEMATOPOIETIC CELLS” (ETABLISSEMENT FRANCAIS DU SANG, priority 2022, published 2026)", "key": {"[1]": {"system": "MEP isolated from peripheral blood CD34+ cells", "assay": "ERYTHRO 1 PROTOCOL on sorted MEP cells", "assay_type": "cell-based, human", "conditions": "MEPs, 10 μM", "description": "b. Isolation of CMP and MEP Progenitors The CD34^+ cells previously isolated via an immunomagnetic technique were marked with anti-CD34-BV421 (1:100 000), anti-CD45RA-BB517 (1:100 000), anti-CD123-Alexa647 (1.5:100 000) antibodies (BD Pharmingen) and a cocktail of anti-LIN-PE antibodies (2:100 000) for 15 minutes. The LIN cocktail antibodies are directed against markers specific to mature cells (CD2, CD3, CD4, CD7, CD8, CD10, CD11b, CD14, CD19, CD20, CD56, CD235a). This LIN cocktail thus allows enrichment in “LIN^neg” immature cells by depletion of mature cells. After incubation with these antibodies, the cells are rinsed with a solution of PBS^+ (PBS+2% Fetal Calf Serum (FCS)) and centrifuged (430×g, 10 min. 4° C.). After resuspension of the cells in PBS^+, CMPs with the phenotype CD34^+LIN^negCD123^+CD45RA^neg and MEPs with the phenotype CD34^+LIN^negCD123^negCD45RA^neg are sorted and harvested using an ARIA cell sorter (Manz et al., 2002). c. Isolation of BFU-E and CFU-E Progenitors Placental blood CD34^+ cells, previously isolated by immunomagnetic sorting, are marked with antibodies specific to surface antigens allowing them to target and discriminate BFU-E primitive erythrocyte progenitors, namely anti-CD34, anti-GPA, anti CD123 and anti-CD36 antibodies. Primitive erythrocyte progenitors (BFU-Es) are defined by the following phenotype: CD34^+CD123^negCD36^negGPA^neg. […]"}, "[2]": {"system": "peripheral blood CD34+ cells", "assay": "ERYTHRO 1 PROTOCOL: simplified two-phase erythrocyte differentiation", "assay_type": "cell-based, human", "conditions": "versus CTRL, FIG. 3", "description": "b. ERYTHRO 1 PROTOCOL: Simplified Ex Vivo Erythrocyte Differentiation Protocol (in Two Phases) This protocol was applied to CD34^+ cells from peripheral and placental blood, pre-stimulated SP cells, CMP cells and MEP cells. For this culture, the cell populations of interest are isolated as indicated previously and cultured in IMDM culture medium supplemented as follows: • 15% BIT 9500 (Stem Cell Technologies). […] The various cell populations were seeded in 24-well plates at 200 000 cells/mL for CD34^+, CMPs and MEPs. All of the cells recovered after the “Amplification/pre-stimulation” step for SP cells (i.e. 5000-50 000 cells) were cultured in 24-well plates. This culture includes two phases: • Phase 1: D0 to D6, EPO-free culture • Phase 2: from D6, addition of 2 IU/ML EPO and extension of culturing up to D21 minimum and D28 maximum.\nIn order to test the effect of vitisin B in this context, the culturing is performed in the absence and presence of vitisin B: • CTRL condition: Absence of vitisin B throughout the entire protocol. • Test condition: Presence of vitisin B at 5, 10, 15, 20 or 30 μM for the entire duration of the protocol (phase 1+phase 2). During the culture protocol, the differentiation product is analyzed by quantifying proliferation (counting) and analyzing erythrocyte differentiation markers by means of flow cytometry, using the markers CD71 and CD235a. c. ERYTHRO 2 PROTOCOL: Three-Phase Erythrocyte Differentiation Protocol\nDuring and at the end of the various erythrocyte differentiation protocols, cell proliferation and cell differentiation are analyzed. Cell proliferation is evaluated by counting of cells on Malassez slides, with Trypan blue exclusion of dead cells. The different populations and culture conditions are also analyzed by flow cytometry, so as to observe the appearance of erythrocyte differentiation markers and thus cell differentiation kinetics. […] After resuspension of the cell pellets in PBS, the cells are analyzed by flow cytometry (FACSCantoll, Becton Dickinson, San Jose, CA). […]"}}, "data": [{"smiles": "Oc1ccc(C2Oc3ccc(/C=C/c4cc(O)cc5c4[C@H](c4cc(O)cc(O)c4)[C@@H](c4ccc(O)cc4)O5)cc3C2c2cc(O)cc3c2C(c2cc(O)cc(O)c2)C(c2ccc(O)cc2)O3)cc1", "note": "(stereo in doubt) [vitisin B, 5-[(2R,2'S,3R,3'S)-5-[(1E)-2-[(2S,3S)-3-(3,5-Dihydroxyphenyl)-2,3-dihydro-6-hydroxy-2-(4-hydroxyphenyl)-4-benzofuranyl]ethenyl]-2,2′,3,3′-tetrahydro-6′-hydroxy-2,2′-bis(4-hydroxyphenyl)[3,4′-bibenzofuran]-3′-yl]-1,3-benzenediol]", "values": [{"measurement": "erythrocyte differentiation (acquisition of the phenotype CD71+GPA+)", "setting": "[1]; FIG. 4A", "result": "acceleration of erythrocyte differentiation"}, {"measurement": "reduction relative to the control in CD71 membrane expression", "setting": "[1]; as early as D7, FIG. 4B", "result": "up to 40%"}, {"measurement": "CD71 expression", "setting": "[2]; flow cytometry", "result": "more rapid decline"}, {"measurement": "acquisition of CD235a (GPA)", "setting": "[2]; flow cytometry", "result": "earlier acquisition"}, {"measurement": "differentiation of CD34+ cells into erythrocyte precursors", "setting": "[2]; vitisin B 5-30 μM for the entire protocol", "result": "faster and greater differentiation"}]}]}
